Data set [1] in a line: acute toxicity (LD50) in the mouse. To be noted: in vivo, ip. An excerpt: For example, the acute toxicity (LD50) in the mouse is […]
Data set [2] has as its system respiratory tract secretion. To be noted: cited from earlier work; for concentration of solids in the fluid of the respiratory tract / quantity of secretion / viscosity of the secretion: human and veterinary medicine; for specific weight: solids/fluid of the respiratory tract.
A further data set in a line: physchem. To be noted: water.
Data set [3] is described as follows: maximum solubility in water.

One may read the LD50 as the dose at which mortality reaches 50%. The low end stands for greater toxicity, the high end for lower toxicity. By solubility is commonly meant how much of the substance goes into solution per volume. A lower solubility goes with a poorly soluble substance. In data set [1], `CN(Cc1cc(Br)cc(Br)c1N)C1CCCCC1.Cl` [Compound A, N-(2-amino-3,5-dibromo-benzyl)-N-methyl-cyclohexylamine hydrochloride] had an LD50 greater than 400 mg/kg. For the same molecule, in data set [2], the “concentration of solids in the fluid of the respiratory tract” value was “reduction”, the quantity of secretion result is reported as “significant increase”, the “viscosity of the secretion” value is reported as “decrease” and the specific weight result is reported as “reduction”. In “physchem”, this molecule displayed a solubility of 200 to 5000 µg/mL.
In data set [1], `Cl.Nc1c(Br)cc(Br)cc1CN[C@H]1CC[C@H](O)CC1` [Compound B, N-(2-amino,3,5-dibromo-benzyl)-trans-4-hydroxy-cyclohexylamine hydrochloride] registered an LD50 of 268 mg/kg. Moreover, in data set [2], the “concentration of solids in the fluid of the respiratory tract” value is on record as “reduction”, the quantity of secretion entry is “significant increase”, the “viscosity of the secretion” value was “decrease” and the specific weight entry was “reduction”. The same molecule had a solubility in the data set “physchem” of 16600 µg/mL.
Molecule `Cl.Oc1c(Br)cc(Br)cc1CN[C@H]1CC[C@H](O)CC1` [Compound C, N-(3,5-dibromo-2-hydroxy-benzyl)-trans-4-hydroxycyclohexylamine hydrochloride] came in with a median lethal dose (LD50) in data set [1] greater than 800 mg/kg. This molecule came in with a solubility in data set [3] of 100 to 1000 µg/mL.
